According to US9744186B2 (priority 2012, dated 2017):

Experiments:
HCV luciferase replicon = HCV luciferase replicon IC50 assay in Huh7 cells; conditions: for IC50: Hepatitis C virus; for Therapeutic Index (TC50/IC50): TC50 in Huh7 / IC50 HCV replicon, 48 h
Description: Plating Cells: The Luciferase replicon cell line was passaged when it was at about 70% confluency. The cells were counted by using a hemocytometer and diluted to 1×10^5 cells per mL in DMEM+10% FBS+[…] G415. The cells were plated as follows: 100 μL of the cells (10,000 cells) per well in a white-walled 96-well plate. The cells were allowed to attach for 24 hours at 37° C.
(§1) Treating the cells: Media (DMEM+2% FBS) was pre-warmed to 37° C. […] The 96-well plate was removed from the 37° C. incubator, and the media replaced on the plate with the serial dilutions of the test drug. The plate was then returned to 37° C. for 48 h.
Luciferase Assay: The Bright-Glo reagent (Promega Corporation, Madison, Wis.) was removed from the −80° C. freezer and allowed to thaw it at 4° C. in the dark. The amount of reagent necessary for the experiment (3.65 mL) was removed, and the remaining reagent was returned to −80° C. The Glo Lysis Buffer and the Bright Glow reagent were allowed to warm to room temperature for 30 min in the dark. The 96 well plate was removed from the incubator and the cells to allowed cool to room temperature for 30 min. The media was removed from the cells, and each well was gently washed in 100 μL of phosphate buffered saline (PBS). The PBS was removed and then 50 μL of the Glo Lysis Buffer was added to each well, followed by gently rocking the plate for 15 min at room temperature in the dark to ensure complete cell lysis. To each well of the 96-well plate was added 50 μL of the Bright Glo reagent and it was mixed well with the lysate. The plate was inserted into a GloMax 96 plate reader and allowed to sit for 5 min in the dark for the luciferase reaction to reach a steady state. The luminescence on the plate was read by using the pre-installed “Bright Glo” Promega program (Synergy Software) and the data were collected and saved. The data were fit to a 4 parameter logistic curve using Kaleidagraph using the following equation: 100/(1+(x/m3)^m4).
The data in Table 1 were determined for cells exposed to drug for 48 h. The IC50 is the concentration of each compound necessary to inhibit the replication of the HCV luciferase replicon to 50%.
That is, the cells were exposed to drug for 2 h at 37° C., followed by 46 h at 37° C. or incubated in the presence of drug for 48 h at 37° C.

[1] = TC50 MTS assay with human cancer cell lines: HEK293; format: cell-based; conditions: HEK293 cells, 96 h drug treatment
Description: (§2) Plating Cells: The Huh7, HEPG2, HEK293, MCF-7, PK9, RPK9, or BxPC3 cells were passaged when they were about 70% confluent. The cells were counted using a hemocytometer, and then diluted cells to 0.5×10^5 cells per mL in DMEM+10% FBS. 100 µL of the cells (5,000 cells) were plated per well in a clear 96-well plate. The cells were allowed to attach for 24 hours at 37° C.
(§3) Treating the cells: Pre-warm the DMEM media without phenol red+2% FBS media to 37° C. […] This will bring the final DMSO concentration to 0.5%. Use these 0.5 mM dilutions to further serially the drugs in DMEM without phenol red+2% FBS+0.5% DMSO. This will keep the concentration of DMSO in each condition identical. Remove the 96-well plate from the 37° C. incubator. Replace the media on the plate with the dilutions of the drugs. Stagger these treatments by 1 h and write the treatment time on each set of plates. Return to 37° C. for 48 h or 96 h as indicated.
(§4) MTS Assay: The reagents from CellTiter 96 kit (Promega Corporation, Madison, Wis.) were thawed at room temperature in the dark for 1 h. The 96-well plate was removed from the 37° C. incubator at 48 h after drug treatment. 20 μL of the combined MTS/PMS reagent to each well of the plate, mixed, and the plate returned to 37° C. The absorbance of each well at 490 nm and 650 nm was determined using the Flexstation 3 microplate reader in endpoint mode every hour for 3 h. The solutions in the wells were mixed prior to each reading. Fit Data to the Emax model: y=(Emax*x)/(TC50+x), where Emax is the maximum inhibition and TC50 is the inhibitory dose 50%. Alternatively, fit the data to the Emax sigmoidal model: y=(Emax*x^slope)/(TC50^slope+x^slope), where slope is the Hill Slope.
(§5) Each TC50 was the average value of three measurements as described herein. […] The RPK9 cells are deficient in deoxycytidine kinase (“dCK”) activity, an enzyme required for the initial phosphorylation of dFdC to dFdCMP (see FIG. 2).

[2] = Compound solubility in media; format: physicochemical; conditions: DMEM+2% FBS cell culture media, 37 °C, plasma or biological fluid, kinetic from dmso stock; DMEM+2% FBS media
Description: as §1

[3] = TC50 MTS assay with human cancer cell lines: Huh7; format: cell-based; conditions: human, Huh7 cells; 96 h drug treatment
Description: as §2, §3, §4, §5

[4] = Stability test of HPLC-purified gemcitabine analogs at different pH conditions; format: physicochemical; conditions: 200 μM
Description: The solution was then incubated for 4 hours at 40° C. [table] HPLC analysis: 100 μl of the incubated solution was loaded onto the Vydac C18 analytical column 4.6/250 at 1 ml/min water with the following procedures: a. Inject 100 μl the incubated solution; b. Water for 5 minutes at 1 ml/min; c. 0-100% methanol over 30 minutes; d. Back to 20% methanol. Analysis: The standard HPLC analysis software was used to quantitate the area under each peak. Degradation peaks are quantitated as a percentage of the peak of the same amount of control sample (no heat treatment).

[5] = TC50 MTS assay with human cancer cell lines: MCF-7; format: cell-based; conditions: MCF-7 cells, 96 h drug treatment
Description: as §2, §3, §4, §5

[6] = Huh-7, 48 h, Huh7 cells containing HCV luciferase replicon, cells exposed to drug for 48 h
[7] = Pretreatment (control sample, no heat treatment)

SMILES	IC50 (HCV luciferase replicon; [6]) [nM]	IC50 (HCV luciferase replicon; Huh-7, 48 h, cells incubated with drug continuously for 48 h (Table 5)) [nM]	IC50 (HCV luciferase replicon; Huh-7, cells incubated with drug for 2 h, followed by 46 h without drug) [nM]	Therapeutic Index (TC50/IC50) (HCV luciferase replicon)	CC50 at 96 h [1] [nM]	solubility [2] [µM]	CC50 at 96 h [3] [nM]	% remaining [4, 7] [%]	% remaining ([4]; pH 1, 4 hours at 40° C.) [%]	% remaining ([4]; pH 2, 4 hours at 40° C.) [%]	% remaining ([4]; pH 4, 4 hours at 40° C.) [%]	% remaining ([4]; pH 6, 4 hours at 40° C.) [%]	% remaining ([4]; pH 8, 4 hours at 40° C.) [%]	CC50 at 96 h [5] [nM]
COc1cc(C(=O)Nc2ccn([C@@H]3O[C@H](CO)[C@@H](O)C3(F)F)c(=O)n2)cc(OC)c1OC [GTB, N^4-(3,4,5-Trimethoxybenzoyl)gemcitabine]	49.3 ± 8.8	49.3 ± 8.8	2770 ± 265	10040	1280 ± 260	> 500	5050 ± 1220	100	86	87	98.6	99.5	82.7	566 ± 118
O=C(Nc1ccn([C@@H]2O[C@H](CO)[C@@H](O)C2(F)F)c(=O)n1)c1cc(Cl)cc(Cl)c1 [GCB, N^4-(3,5-Dichlorobenzoyl)gemcitabine]	25.5 ± 2.2	–	–	4310	1190 ± 180	< 500	4170 ± 1060	100	35	82	98.4	99.6	35.4	326 ± 88
